From ChEMBL document CHEMBL1133993, “Chemical synthesis of UDP-beta-L-arabinofuranose and its turnover to UDP-beta-L-arabinopyranose by UDP-galactopyranose mutase” (Bioorg Med Chem Lett, 2001)

Test system: Escherichia coli
Experiment: Kinetic constant using the compound as substrate was determined against Escherichia coli UDP-galactopyranose mutase

Compound	Km	k cat
O=c1ccn([C@@H]2O[C@H](COP(=O)(O)OP(=O)(O)O[C@H]3O[C@@H](CO)[C@H](O)[C@H]3O)[C@@H](O)[C@H]2O)c(=O)[nH]1	600 µM	12 s⁻¹
O=c1ccn(C2O[C@H](COP(=O)(O)OP(=O)(O)OC3O[C@H]([C@H](O)CO)[C@H](O)[C@H]3O)[C@@H](O)[C@H]2O)c(=O)[nH]1 (some centres undefined)	22 µM	27 s⁻¹
